How the values were obtained:
[1] = tested on: Septoria tritici; assay: Preventative control of leaf blotch on wheat, inoculation next day (Septtr P1), greenhouse; type: in vivo; settings: for Disease (%) at 150 pm Septtr P1: 150 ppm, Use Example 9, untreated control 90; for Disease(%) at 150 ppm Septtr P1: Use Example 6, untreated control 80
[2] = tested on: Septoria tritici; assay: Preventative control of leaf blotch on wheat, inoculation seven days later (Septtr P7), greenhouse; type: in vivo
[3] = tested on: Septoria tritici; assay: Curative control of leaf blotch on wheat (Septtr K7), greenhouse; type: in vivo; settings: untreated control 90
[4] = tested on: Pyrenophora teres; type: cell-based; settings: 32 ppm; Use Example 10 M6
[5] = tested on: Alternaria solani; assay: Preventative fungicidal control of early blight on tomatoes, inoculation seven days later (Alteso P7), greenhouse; type: in vivo; settings: tomato; for Disease (%) at 63 ppm Alteso P7: untreated control 100; for Disease (%) at 16 ppm Alteso P7: untreated control 90
[6] = tested on: Uncinula necator; assay: Control of powdery mildew on grape (Uncine P3), greenhouse; type: in vivo; settings: untreated control 100
Protocol: Preventative Control of Leaf Blotch on Wheat Caused by Septoria tritici (Septtr P7) Grape cuttings were grown in pots to the 4 to 5 leaf stage. […] Three days later the treated plants were inoculated with spores of Uncinula necator by shaking heavily infestated stock plants over the treated pots. […] Preventative Fungicidal Control of Early Blight on Tomatoes (Alternaria solani) (Alteso P7)

[7] = tested on: Pyricularia oryzae; assay: microbe, parasite or virus in culture; type: cell-based; settings: for activity at 2 ppm: Pyricularia oryzae, read-out: growth (relative growth in % of control)
[8] = Use Example 11, untreated control 90
[9] = Use Example 8, untreated control 80
[10] = Use Example 6, untreated control 80

For `COC(Cn1cncn1)c1ccc(Oc2ccc(Cl)cc2)cc1Cl` (centres unmarked) [DE3801233 compound 2, reference compound], the “Disease (%) at 150 pm Septtr P1” value [1] was 30%, the “Disease (%) at 16 ppm Septtr P7” value [2, 8] was 90% and the “Disease (%) at 16 ppm Septtr K7” value [3] was 80%.

In the case of `OC(Cn1cncn1)c1ccc(Oc2ccc(Cl)cc2Cl)cc1C(F)(F)F` (centres unmarked) [I-13], the “growth (relative growth in % of control)” value [4] was 1%.

In the case of `OC(Cn1cncn1)c1ccc(Oc2ccc(Cl)cc2)cc1C(F)(F)F` (centres unmarked) [compound I-1], the “Disease(%) at 150 ppm Septtr P1” value [1] was 0%, the “Disease (%) at 16 ppm Septtr P7” value [2, 9] was 2% and the “Disease (%) at 16 ppm Septtr P7” value [2, 8] was 3%. For the same compound, the “Disease (%) at 63 ppm Alteso P7” value [5] was 3%, the “Disease (%) at 16 ppm Uncine P3” value [6] was 0% and the “Growth (%) at 0.5 ppm Pyrior” value ([7]; Use Example 7) was 47%.

With `CC(O)(Cn1cncn1)c1ccc(Oc2ccc(Cl)cc2)cc1C(F)(F)F` (centres unmarked) [compound I-2, 2-[4-(4-chloro-phenoxy)-2-trifluoromethyl-phenyl]-1-[1,2,4]triazol-1-yl-propan-2-ol] the “Disease (%) at 16 ppm Septtr P7” value [2, 10] was 10%, the “Disease (%) at 16 ppm Alteso P7” value [5] was 15% and the “Growth (%) at 0.5 ppm Pyrior” value ([7]; Use Example 6) was 68%. For the same compound, the “Growth (%) at 0.5 ppm Pyrior” value ([7]; Use Example 7) was 68%.

For `CCC(O)(Cn1cncn1)c1ccc(Oc2ccc(Cl)cc2)cc1C(F)(F)F` (centres unmarked) [compound I-3, 2-[4-(4-chloro-phenoxy)-2-trifluoromethyl-phenyl]-1[1,2,4]triazol-1-yl-butan-2-ol], the “Growth (%) at 0.5 ppm Pyrior” value ([7]; Use Example 7) was 58% and the activity at 2 ppm [7] was at most 4%.

With `CCCC(O)(Cn1cncn1)c1ccc(Oc2ccc(Cl)cc2)cc1C(F)(F)F` (centres unmarked) [compound I-4] the “Disease (%) at 16 ppm Septtr P7” value [2, 9] was 25% and the “Growth (%) at 0.5 ppm Pyrior” value ([7]; Use Example 7) was 19%.

For `CC#CC(O)(Cn1cncn1)c1ccc(Oc2ccc(Cl)cc2)cc1C(F)(F)F` (centres unmarked) [compound I-6, 2-[4-(4-chlorophenoxy)-2-(trifluoromethyl)phenyl]-1-(1,2,4-triazol-1-yl)pent-3-yn-2-ol], the melting point was 137 °C, the “Disease (%) at 16 ppm Septtr P7” value [2, 9] was 0% and the “Growth (%) at 0.5 ppm Pyrior” value ([7]; Use Example 7) was 37%.

`CC(C)C(O)(Cn1cncn1)c1ccc(Oc2ccc(Cl)cc2)cc1C(F)(F)F` (centres unmarked) [compound I-7, 2-[4-(4-chlorophenoxy)-2-(trifluoromethyl)phenyl]-3-methyl-1-(1,2,4-triazol-1-yl)butan-2-ol] gave a melting point of 114 °C.

Work on `COC(C)(Cn1cncn1)c1ccc(Oc2ccc(Cl)cc2)cc1C(F)(F)F` (centres unmarked) [compound I-10, 1-[2-[4-(4-chlorophenoxy)-2-(trifluoromethyl)phenyl]-2-methoxy-propyl]-1,2,4-triazole] yielded an activity at 2 ppm [7] of at most 4%.

With `COC(Cn1cncn1)c1ccc(Oc2ccc(Cl)cc2)cc1C(F)(F)F` (centres unmarked) [compound I-14] the “Disease (%) at 150 pm Septtr P1” value [1] was 0%, the “Disease (%) at 16 ppm Septtr P7” value [2, 8] was 15% and the “Disease (%) at 16 ppm Septtr K7” value [3] was 20%.

For `CC(O)(Cn1cncn1)c1ccc(Oc2ccc(F)cc2)cc1C(F)(F)F` (centres unmarked) [compound I-16], the “Disease (%) at 150 pm Septtr P1” value [1] was 0%.

In the case of `OC(Cn1cncn1)c1ccc(Oc2ccc(Cl)cc2)cc1Cl` (centres unmarked) [compound V6, reference compound], the “Disease(%) at 150 ppm Septtr P1” value [1] was 60%, the “Disease (%) at 16 ppm Septtr P7” value [2, 8] was 30% and the “Disease (%) at 63 ppm Alteso P7” value [5] was 40%. The “Disease (%) at 16 ppm Uncine P3” value [6] was 40%.

With `CC(O)(Cn1cncn1)c1ccc(Oc2ccc(Cl)cc2)cc1Cl` (centres unmarked) [compound V18, reference compound] the “Disease (%) at 16 ppm Septtr P7” value [2, 10] was 60%, the “Disease (%) at 16 ppm Septtr P7” value [2, 8] was 67% and the “Disease (%) at 16 ppm Alteso P7” value [5] was 60%. The “Growth (%) at 0.5 ppm Pyrior” value ([7]; Use Example 6) was 82% and the “Growth (%) at 0.5 ppm Pyrior” value ([7]; Use Example 7) was 82%.

With `CC(O)(Cn1cncn1)c1ccc(Oc2ccc(F)cc2)cc1Cl` (centres unmarked) [compound V19, reference compound] the “Disease (%) at 150 pm Septtr P1” value [1] was 40% and the “Disease (%) at 16 ppm Septtr P7” value [2, 9] was 60%.

From US10358426B2, “Fungicidal substituted 2-[2-halogenalkyl-4-(phenoxy)-phenyl]-1-[1,2,4]triazol-1-yl-ethanol compounds” (BASF Agro B.V., priority 2011, dated 2019)
